This is an account of results in patent US7452911B2 (Boehringer Ingelheim Pharma GmbH & Co. KG, priority 2002, dated 2008).

As a reminder, the melting point is the temperature, or range, at which the solid turns liquid. Usually IC50 stands for the point on the concentration scale where inhibition reaches its midpoint. A higher IC50 goes with weaker potency.

The target in one series is T1, hMCH-1R (Homo sapiens, UniProt Q99705).
T1 construct: expressed in transfected cells; host or cells: CHO/Galpha16 cells, stably transfected; membrane preparation
The series is described as follows: MCH-1 receptor binding test (125I-MCH binding to membranes of hMCH-1R transfected CHO/Galpha16 cells). Particulars: 100 pM 125I-MCH, membranes of CHO/Galpha16 cells stably transfected with hMCH-1R, 60 minutes at ambient temperature. The method, then:
Membranes from CHO/Galpha16 cells stably transfected with human hMCH-1R are resuspended using a syringe (needle 0.6×25 mm) and diluted in test buffer (50 mM HEPES, 10 mM MgCl2, 2 mM EGTA, pH 7.00; 0.1% bovine serum albumin (protease-free), 0.021% bacitracin, 1 μg/ml aprotinin, 1 μg/ml leupeptin and 1 μM phosphoramidone) to a concentration of 5 to 15 μg/ml. […] After the incubation the reaction is filtered using a cell harvester through 0.5% PEI treated glass fibre filters (GF/B, Unifilter Packard). The membrane-bound radioactivity retained on the filter is then determined after the addition of scintillator substance (Packard Microscint 20) in a measuring device (TopCount of Packard).
The analysis of the concentration binding curve is carried out on the assumption of one receptor binding site.

The target of series [1] is T2, MCH-1R (Rattus norvegicus, UniProt P97639). More on the design: host or cells: rats (in vivo). The conditions noted are these: rats; cited from earlier work.
The target in series [2] is T2, MCH-1R. Set-up: host or cells: whole animals (in vivo). The conditions noted are these: animals treated with the antagonist; cited from earlier work.

T2 sequence (P97639 whole entry): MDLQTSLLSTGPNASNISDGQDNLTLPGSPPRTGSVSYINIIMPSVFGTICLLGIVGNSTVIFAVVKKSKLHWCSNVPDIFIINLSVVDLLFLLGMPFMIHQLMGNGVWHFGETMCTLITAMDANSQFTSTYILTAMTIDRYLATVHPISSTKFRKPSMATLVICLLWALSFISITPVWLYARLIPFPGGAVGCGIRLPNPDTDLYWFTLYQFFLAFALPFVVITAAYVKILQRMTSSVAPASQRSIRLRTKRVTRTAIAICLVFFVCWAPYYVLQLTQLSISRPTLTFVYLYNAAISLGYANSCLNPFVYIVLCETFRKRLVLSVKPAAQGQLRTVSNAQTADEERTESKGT
T1 sequence (Q99705 whole entry): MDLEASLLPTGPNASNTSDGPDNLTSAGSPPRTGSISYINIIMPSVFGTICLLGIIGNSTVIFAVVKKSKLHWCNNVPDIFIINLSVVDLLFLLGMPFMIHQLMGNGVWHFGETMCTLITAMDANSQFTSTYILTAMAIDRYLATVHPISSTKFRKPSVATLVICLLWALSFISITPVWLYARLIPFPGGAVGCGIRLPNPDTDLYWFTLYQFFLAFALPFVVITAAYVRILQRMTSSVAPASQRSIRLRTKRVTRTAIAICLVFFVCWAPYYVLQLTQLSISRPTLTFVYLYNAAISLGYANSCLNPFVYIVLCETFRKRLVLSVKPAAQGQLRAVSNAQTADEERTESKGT

For the compound `Clc1ccc(-c2ccc3nc(C#Cc4ccc(OCCN5CCCC5)cc4)ccc3c2)cc1` [Example 18, 6-(4-chloro-phenyl)-2-[4-(2-pyrrolidin-1-yl-ethoxy)-phenylethynyl]-quinoline], the melting point was 176 to 185 °C.

As to `CCN(CC)CCOc1ccc(C#Cc2ccc(-c3ccc(F)c(F)c3)cn2)cc1` [Example 1.3, (2-{4-[5-(3,4-difluoro-phenyl)-pyridin-2-ylethynyl]-phenoxy}-ethyl)-diethyl-amine], the IC50 on hMCH-1R stood at 74 nM.

Compound `CN(C)CC1CCN(CCOc2ccc(C#Cc3ccc(-c4ccc(Cl)cc4)cn3)cc2)CC1.Cl` showed a melting point of more than 250 °C.

`Clc1ccc(-c2ccc(C#Cc3ccc4oc(CN5CCCC5)nc4c3)nc2)cc1` [Example 21, 5-[5-(4-chloro-phenyl)-pyridin-2-ylethynyl]-2-pyrrolidin-1-ylmethyl-benzoxazole] had a melting point of 145 °C.

On to `COCC1=C(C(=O)OC)[C@H](c2ccc(F)c(F)c2)N(C(=O)NCCCN2CCC(c3cccc(NC(C)=O)c3)CC2)C(=O)N1` [SNAP-7941], for which, on MCH-1R [1], the “effects in behavioural experiments” value is “anxiolytic and antidepressant effects”. Further, the “body weight in long term trials” value at MCH-1R [2] is given as “lose significant amounts of weight”.

The compound `Clc1ccc(-c2ccc3nc(C#Cc4ccc5oc(CN6CCCC6)nc5c4)ccc3c2)cc1` [Example 20, 6-(4-chloro-phenyl)-2-(2-pyrrolidin-1-ylmethyl-benzoxazol-5-ylethynyl)-quinoline] returned a melting point of 151 to 153 °C.

Turning to `Clc1ccc(-c2ccc3nc(C#Cc4cccc(OCCN5CCCC5)c4)ccc3c2)cc1` [Example 19, 6-(4-chloro-phenyl)-2-[3-(2-pyrrolidin-1-yl-ethoxy)-phenylethynyl]-quinoline], the melting point was 114 to 117 °C.

Compound `Clc1ccc(-c2ccc3nc(C#Cc4ccc(CN5CCCC5)cc4)ccc3c2)cc1` [Example 17, 6-(4-chloro-phenyl)-2-(4-pyrrolidin-1-ylmethyl-phenylethynyl)-quinoline] displayed a melting point of 170 to 193 °C.
